Reference: ChEMBL document CHEMBL1201862, “PubChem BioAssay data set” (2004)
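In this assay, cells in 96-well plates receive the compound at five concentrations for 48 hours. Endpoints are linearly interpolated between the surrounding concentrations. GI50 = concentration required for 50% inhibition of growth.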 Active and inactive are the calls of the source. Rule as the data show it: active = GI50 up to about 1.1 µM and inactive = higher.

How the values were obtained:
Assay in all cases: NCI anticancer screen, dose series, 48 h
NCI-H23 = tested on: NCI-H23
MOLT-4 = tested on: MOLT-4
NCI/ADR-RES = tested on: NCI/ADR-RES
ACHN = tested on: ACHN
Malme-3M = tested on: Malme-3M
SNB-19 = tested on: SNB-19
PC-3 = tested on: PC-3
COLO 205 = tested on: COLO 205
SK-MEL-28 = tested on: SK-MEL-28
UO-31 = tested on: UO-31
DU-145 = tested on: DU-145
SN12C = tested on: SN12C
786-0 = tested on: 786-0
NCI-H460 = tested on: NCI-H460
A498 = tested on: A498
NCI-H226 = tested on: NCI-H226
HL-60 = tested on: HL-60
HCT-116 = tested on: HCT-116
UACC-62 = tested on: UACC-62
SK-MEL-2 = tested on: SK-MEL-2

| SMILES | GI50 (NCI-H23) | GI50 (MOLT-4) | GI50 (NCI/ADR-RES) | GI50 (ACHN) | GI50 (Malme-3M) | GI50 (SNB-19) | GI50 (PC-3) | GI50 (COLO 205) | GI50 (SK-MEL-28) | GI50 (UO-31) | GI50 (DU-145) | GI50 (SN12C) | GI50 (786-0) | GI50 (NCI-H460) | GI50 (A498) | GI50 (NCI-H226) | GI50 (HL-60) | GI50 (HCT-116) | GI50 (UACC-62) | GI50 (SK-MEL-2) |
| --- | --- | --- | --- | --- | --- | --- | --- | --- | --- | --- | --- | --- | --- | --- | --- | --- | --- | --- | --- | --- |
| CCOc1c(OC)cc(CNNc2nccs2)cc1OC | 62.4 µM (inactive) | 28.6 µM (inactive) | 70.6 µM (inactive) | > 100 µM (inactive) | 82.2 µM (inactive) | > 100 µM (inactive) | 41.9 µM (inactive) | 51.4 µM (inactive) | > 100 µM (inactive) | 71.9 µM (inactive) | 15 µM (inactive) | > 100 µM (inactive) | > 100 µM (inactive) | 27 µM (inactive) | > 100 µM (inactive) | > 100 µM (inactive) | 13.4 µM (inactive) | > 100 µM (inactive) | – | – |
| COC(=O)CP1(=O)OC2C(C3CCC2(C)C3(C)C)N1c1cc(C(F)(F)F)cc(C(F)(F)F)c1 (centres undefined) | 26.6 µM (inactive) | 16.7 µM (inactive) | 20.6 µM (inactive) | > 100 µM (inactive) | 17.3 µM (inactive) | 32.7 µM (inactive) | 19.9 µM (inactive) | 24 µM (inactive) | 42.9 µM (inactive) | 32.9 µM (inactive) | 31.3 µM (inactive) | – | 18.2 µM (inactive) | 22.2 µM (inactive) | > 100 µM (inactive) | 31.6 µM (inactive) | – | 12.6 µM (inactive) | > 100 µM (inactive) | 20.9 µM (inactive) |
| CC(=O)OCC1OC(O[C@@H]2C[C@H]3C(C)(C)[C@@H](OC(C)=O)CC[C@]3(C)[C@H]3CC[C@]45C[C@]4(CC[C@H]5[C@@H](C)C[C@@H](O)[C@H](O)C(C)(C)F)[C@@]32C)C(O)C(O)C1O (some centres undefined) | 2.22 µM (inactive) | 1.92 µM (inactive) | 10.5 µM (inactive) | 37.5 µM (inactive) | 1.71 µM (inactive) | 1.68 µM (inactive) | 10.6 µM (inactive) | 1.78 µM (inactive) | 1.63 µM (inactive) | – | > 100 µM (inactive) | 1.73 µM (inactive) | 1.69 µM (inactive) | 16.9 µM (inactive) | 18.2 µM (inactive) | – | 1.09 µM (active) | 1.56 µM (inactive) | 23.9 µM (inactive) | – |
| COc1ccc(/C=N/NC(=O)c2ccccc2Nc2ccccc2C(=O)N/N=C/c2ccc(OC)cc2)cc1 | > 100 µM (inactive) | > 100 µM (inactive) | > 100 µM (inactive) | > 100 µM (inactive) | > 100 µM (inactive) | > 100 µM (inactive) | > 100 µM (inactive) | > 100 µM (inactive) | > 100 µM (inactive) | > 100 µM (inactive) | > 100 µM (inactive) | > 100 µM (inactive) | > 100 µM (inactive) | > 100 µM (inactive) | > 100 µM (inactive) | > 100 µM (inactive) | – | > 100 µM (inactive) | > 100 µM (inactive) | > 100 µM (inactive) |
| COc1cc(C(=O)C2C(=O)c3ccccc3C2C2(O)c3ccccc3CC2C(O)c2cc(OC)c(OC)c(OC)c2)cc(OC)c1OC (centres undefined) | > 100 µM (inactive) | > 100 µM (inactive) | > 100 µM (inactive) | > 100 µM (inactive) | > 100 µM (inactive) | > 100 µM (inactive) | > 100 µM (inactive) | > 100 µM (inactive) | > 100 µM (inactive) | > 100 µM (inactive) | > 100 µM (inactive) | > 100 µM (inactive) | > 100 µM (inactive) | > 100 µM (inactive) | > 100 µM (inactive) | > 100 µM (inactive) | – | > 100 µM (inactive) | > 100 µM (inactive) | > 100 µM (inactive) |
| CC(=O)O[C@H]1CN(S(=O)(=O)c2ccc(C)cc2)C[C@@H]1C1CCCCC1 | 36.3 µM (inactive) | 28.5 µM (inactive) | 19.5 µM (inactive) | 36.9 µM (inactive) | – | 55.3 µM (inactive) | 20.1 µM (inactive) | 46.8 µM (inactive) | 20.5 µM (inactive) | 38.2 µM (inactive) | 32.9 µM (inactive) | – | – | 31.7 µM (inactive) | > 100 µM (inactive) | 16.7 µM (inactive) | – | – | 22.6 µM (inactive) | 18.7 µM (inactive) |
| Nc1ccc(S(=O)(=O)c2ccc(NC(=O)c3cccnc3)cc2)cc1 | > 100 µM (inactive) | 57.5 µM (inactive) | > 100 µM (inactive) | > 100 µM (inactive) | > 100 µM (inactive) | > 100 µM (inactive) | 75 µM (inactive) | > 100 µM (inactive) | > 100 µM (inactive) | > 100 µM (inactive) | > 100 µM (inactive) | > 100 µM (inactive) | > 100 µM (inactive) | > 100 µM (inactive) | > 100 µM (inactive) | > 100 µM (inactive) | 45.1 µM (inactive) | > 100 µM (inactive) | > 100 µM (inactive) | – |
| Nc1ccc(-c2ncc3cc(-c4cccc(-c5cc6cnc(-c7ccc(N)cc7)nc6c6ccccc56)c4)c4ccccc4c3n2)cc1 | > 100 µM (inactive) | > 100 µM (inactive) | > 100 µM (inactive) | > 100 µM (inactive) | – | > 100 µM (inactive) | > 100 µM (inactive) | 35.3 µM (inactive) | > 100 µM (inactive) | > 100 µM (inactive) | > 100 µM (inactive) | > 100 µM (inactive) | > 100 µM (inactive) | > 100 µM (inactive) | > 100 µM (inactive) | > 100 µM (inactive) | – | > 100 µM (inactive) | > 100 µM (inactive) | > 100 µM (inactive) |
| CCCC(=O)Oc1cc(OC(=O)CCC)c2c(C)cc(=O)oc2c1 | 71 µM (inactive) | 29 µM (inactive) | > 100 µM (inactive) | > 100 µM (inactive) | 76.6 µM (inactive) | > 100 µM (inactive) | 76.2 µM (inactive) | 40 µM (inactive) | > 100 µM (inactive) | 39.6 µM (inactive) | > 100 µM (inactive) | > 100 µM (inactive) | 82.6 µM (inactive) | – | 46.1 µM (inactive) | 87.7 µM (inactive) | – | 50.1 µM (inactive) | 66.1 µM (inactive) | > 100 µM (inactive) |
| O=C1CCCN1C(=O)CS(=O)(=O)c1ccccc1 | > 100 µM (inactive) | > 100 µM (inactive) | > 100 µM (inactive) | > 100 µM (inactive) | > 100 µM (inactive) | > 100 µM (inactive) | > 100 µM (inactive) | > 100 µM (inactive) | > 100 µM (inactive) | > 100 µM (inactive) | > 100 µM (inactive) | > 100 µM (inactive) | > 100 µM (inactive) | > 100 µM (inactive) | > 100 µM (inactive) | > 100 µM (inactive) | – | > 100 µM (inactive) | > 100 µM (inactive) | > 100 µM (inactive) |
| N/C(=N\N=C\c1cc2ccccc2s1)c1cnccn1 | > 100 µM (inactive) | – | > 100 µM (inactive) | > 100 µM (inactive) | – | 88.3 µM (inactive) | 92.3 µM (inactive) | > 100 µM (inactive) | > 100 µM (inactive) | > 100 µM (inactive) | > 100 µM (inactive) | > 100 µM (inactive) | > 100 µM (inactive) | > 100 µM (inactive) | > 100 µM (inactive) | > 100 µM (inactive) | > 100 µM (inactive) | > 100 µM (inactive) | > 100 µM (inactive) | > 100 µM (inactive) |
| O=C1CC(c2ccsc2)n2cccc21 (centres undefined) | > 100 µM (inactive) | > 10 µM (inactive) | > 100 µM (inactive) | > 100 µM (inactive) | – | > 100 µM (inactive) | > 100 µM (inactive) | > 100 µM (inactive) | > 100 µM (inactive) | > 100 µM (inactive) | > 100 µM (inactive) | > 100 µM (inactive) | > 100 µM (inactive) | – | > 100 µM (inactive) | > 100 µM (inactive) | > 100 µM (inactive) | > 100 µM (inactive) | > 100 µM (inactive) | > 100 µM (inactive) |
| N#Cc1cnn2ccn(C3OC(COC(=O)c4ccccc4)C(OC(=O)c4ccccc4)C3OC(=O)c3ccccc3)c12 (centres undefined) | > 21.5 µM (inactive) | > 21.5 µM (inactive) | > 21.5 µM (inactive) | > 21.5 µM (inactive) | > 21.5 µM (inactive) | > 21.5 µM (inactive) | 5.56 µM (inactive) | > 21.5 µM (inactive) | > 21.5 µM (inactive) | > 21.5 µM (inactive) | > 21.5 µM (inactive) | > 21.5 µM (inactive) | > 21.5 µM (inactive) | > 21.5 µM (inactive) | 20.5 µM (inactive) | > 21.5 µM (inactive) | > 21.5 µM (inactive) | > 21.5 µM (inactive) | > 21.5 µM (inactive) | – |
| NC(=O)CC(N)C(=O)NC(Cc1ccccc1)C(=O)NC(Cc1ccccc1)NC(=O)C(Cc1c[nH]c2ccccc12)C(=O)O (centres undefined) | > 100 µM (inactive) | > 100 µM (inactive) | > 100 µM (inactive) | > 100 µM (inactive) | > 100 µM (inactive) | > 100 µM (inactive) | > 100 µM (inactive) | > 100 µM (inactive) | > 100 µM (inactive) | > 100 µM (inactive) | > 100 µM (inactive) | > 100 µM (inactive) | > 100 µM (inactive) | > 100 µM (inactive) | > 100 µM (inactive) | > 100 µM (inactive) | – | > 100 µM (inactive) | > 100 µM (inactive) | > 100 µM (inactive) |
